Laboratory results from patent US8962244B2, “Compounds for modulating RNA binding proteins and uses therefor” (University of Massachusetts, priority 2009, dated 2015).

Key:
[1] = biological target: T1, MEX-5 (Caenorhabditis elegans, UniProt Q9XUB2); assay: Fluorescence polarization screening of MEX-5 binding to fluorescein-labeled TCR2 RNA; details: 192 μM test compound; score = polarization relative to no-drug and no-protein controls; 0.25 = 75% inhibition; lowest score = greatest inhibition; read-out: MEX-5 score
T1 construct: The fragment of mex-5 containing the TZF domain (amino acids 236-350) was amplified; made in house; host or cells: Escherichia coli JM109
T1 sequence (Q9XUB2 236-350): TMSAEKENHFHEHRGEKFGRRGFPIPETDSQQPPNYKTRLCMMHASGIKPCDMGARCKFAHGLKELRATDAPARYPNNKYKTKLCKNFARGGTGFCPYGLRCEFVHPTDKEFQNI
Source text: The expression and purification of recombinant MEX-5 protein has previously been described in Pagano, J. M., Farley, B. M., McCoig, L. M. and Ryder, S. P. (2007) “Molecular basis of RNA recognition by the embryonic polarity determinant MEX-5;” J Biol Chem; 282, 8883-8894. The fragment of mex-5 containing the TZF domain (amino acids 236-350) was amplified from a commercially available ORFeome clone (Open Biosystems) and sub-cloned into the vector pMal-c (NEB), which encodes maltose binding protein as an N-terminal fusion. This construct is termed pMal-MEX-5 (236-350).
MEX-5 is expressed in Escherchia. coli JM109 liquid cultures grown at 37° C. Cultures were induced during mid log phase by the addition of 0.1 mM isopropyl 1-thio-β-D-galactopyranoside (IPTG) and allowed to grow for three hours. An amount of 100 μM zinc acetate (final concentration) was added at the time of induction. The pelleted cells were resuspended in lysis buffer (50 mM Tris pH 8.8, 200 mM NaCl, 2 mM DTT, EDTA free protease inhibitor tablet (Roche), 100 μM Zn(OAc)2) and lysed by sonication. The soluble protein was purified in three steps using standard chromatography methods: (1) amylose affinity (NEB), (2) Hi-TRAP-Q (GE Healthcare), and (3) Hi-TRAP-S (GE Healthcare). The Q buffer was composed of 50 mM Tris, pH 8.8, 20 mM-1500 mM NaCl, 2 mM DTT, and 100 μM Zn(OAc)2. The S buffer was composed of 50 mM MOPS, pH 6.0, 20 mM-1500 mM NaCl, 2 mM DTT, 100 μM Zn(OAc)2. The pure fractions, determined by coomassie-stained SDS-PAGE, were dialyzed into storage buffer (20 mM Tris, pH 8.0, 25 mM NaCl, 100 μM Zn(OAc)2, 2 mM DTT). The protein concentration was determined by measuring absorbance at 280 nm and the calculated extinction coefficient. The protein was stored at 50 μM concentration at 4° C.
All RNA oligonucleotides were chemically synthesized by Dharmacon or Integrated DNA Technologies. Upon arrival, each RNA was deprotected and stored according to the manufacturer's instructions. Prior to use, the RNA was resuspended in 10 mM Tris-HCl, pH 8.0, 0.1 mM EDTA, and the concentration determined by UV spectrophotometry using the calculated extinction coefficient at 260 nm based on the specific sequence. The sequence of the MEX-5 binding RNA (TCR2) is […] (SEQ ID NO:1). The POS-1 binding RNA (BMF018) is […] (SEQ ID NO:2). The MEX-3 binding RNA (SEQ 14) is […] (SEQ ID NO:3).
The RNA used for the small molecule screen was labeled at the 3′-end with fluorescein by Dharmacon during synthesis. In a few cases, follow up experiments were performed with post-synthetically labeled RNA. In this case, fluorescein 5-thiosemicarbazide (FTSC, Invitrogen) was used to 3′-end label each RNA after treatment with sodium periodate (see Reines, S. A. and Cantor, C. R. (1974) “New fluorescent hydrazide reagents for the oxidized 3′-terminus of RNA” Nucleic Acids Res. 1, 767-786). A representative 50 μl reaction consisted of 0.5 nanomoles RNA, 100 mM NaOAc, pH 5.1, and 5 nanomoles NaIO4. After the reaction was complete (90 minutes at room temperature), the sample was ethanol precipitated by adding 1 μl RNase free glycogen (Invitrogen 20 μg/μl), 1/20th volume of 5 M NaCl, and 2 volumes of 100% ice-cold ethanol. The resulting pellet was resuspended in 50 μl of 100 mM NaOAc, pH 5.1 containing 1 mM FTSC and was allowed to react overnight at 4° C. in the dark. The unreacted label was removed by ethanol precipitation with resuspension of the pellet in a small volume of TE, and purification over a Roche G-25 size exclusion spin column. The labeling efficiency is determined by calculating the ratio of fluorescein absorbance at 490 nm to RNA-fluorescein absorbance at 260 nm. Typical efficiencies are 60-80%.
The ability of MEX-5 to associate with RNA was monitored by fluorescence polarization using a victor V3 or victor V2V plate reader (Perkin Elmer) in 384-well FluoTrak microplates (Grenier). […]

[2] = biological target: T2, POS-1 (Caenorhabditis elegans, UniProt G5EF15); assay: Fluorescence polarization screening of POS-1 binding to fluorescein-labeled BMF018 RNA; details: 192 μM test compound; score = polarization relative to no-drug and no-protein controls; 0.25 = 75% inhibition; lowest score = greatest inhibition; read-out: POS-1 score
T2 construct: 6-his tag (N); made in house; host or cells: E. coli BL21 (DE3) Gold
T2 sequence (G5EF15 80-180): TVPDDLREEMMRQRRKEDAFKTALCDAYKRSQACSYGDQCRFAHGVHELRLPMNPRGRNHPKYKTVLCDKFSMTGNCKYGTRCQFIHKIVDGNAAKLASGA

| SMILES | remaining activity at 192 µM [1] | remaining activity at 192 µM [2] |
| --- | --- | --- |
| COc1ccccc1C(=O)NC(=S)Nc1ccc(C(=O)O)c(Cl)c1 [BV] | 21.1% | 12.2% |
| Cc1ccc(S(=O)(=O)NC(=S)NCc2cccc(Oc3ccccc3)c2)cc1 [BY] | 21.3% | 14.4% |
| CCOC(=O)c1ccccc1OC(=O)c1ccc2c(c1)C1C=CCC1C(C(=O)O)N2 (stereo not shown) [B] | -3.69% | 5.51% |
| O=C1NN(c2ccccc2)C(=O)/C1=C\c1cccc(OC(=O)c2cccs2)c1 [CA] | 21.6% | 23% |
| Oc1ccc(Br)cc1-c1n[nH]c(=S)n1Cc1ccccc1 [CB] | 21.7% | 23.9% |
| Cc1ccc(O)c(NS(=O)(=O)c2ccc([N+](=O)[O-])cc2)c1 [CD] | 22.6% | 12.4% |
| O=S(=O)(Nc1nc(-c2ccccc2)c(-c2ccccc2)o1)c1ccc(Cl)cc1 [CO] | 24.1% | 16% |
| O=S(=O)(Nc1ccc(Cl)cc1O)c1ccccc1 [D] | -1.58% | -3.79% |
| O=S(=O)(Nc1ccc(O)c(NS(=O)(=O)c2ccccc2)c1)c1ccccc1 [F] | -0.711% | -2.79% |
| O=C(O)c1ccc(Sc2nnc(-c3cccc(Br)c3)o2)c([N+](=O)[O-])c1 [G] | -0.64% | 24.2% |
| O=C(Oc1ccc2ccccc2c1)c1ccc2c(c1)C1C=CCC1C(C(=O)O)N2 (stereo not shown) [H] | -0.336% | 1.95% |
| O=c1cc(-c2ccccc2)c2ccc(O)c(O)c2o1 [I] | -0.142% | 0.543% |
| CC(=O)Oc1ccc(S(=O)(=O)c2ccc(OC(C)=O)c(OC(C)=O)c2)cc1OC(C)=O [J] | -0.0941% | 8.51% |
| O=C(Oc1ccc2c(c1)C1C=CCC1C(C(=O)O)N2)c1ccc(Cl)cc1Cl (stereo not shown) [K] | 0.00138% | 5.81% |
| Cc1n[nH]c(SCc2cccc(CSc3nc(C)n[nH]3)c2)n1 [L] | 1.21% | -0.0864% |
| CCCCN1C(=O)/C(=c2\sc3nc(-c4ccccc4OC(C)=O)nn3c2=O)c2ccccc21 [M] | 1.62% | 11.7% |
| CC1(C)Cc2ccccc2-c2[nH]c3nnc(S)n3c(=O)c21 [O] | 2.3% | 4.77% |
| Cc1[nH]nc(-c2ccc(O)c(O)c2O)c1-c1ccccc1 [P] | 3.42% | 4.3% |
| CC1(C)CC(Cc2nnc(S)[nH]2)C(=O)O1 (stereo not shown) [S] | 5% | 10.5% |
| COc1ccc(NC(=S)c2nc3ccccc3[nH]2)cc1 [T] | 5.51% | 8.99% |
| O=C(O)C1Nc2cc(Cl)cc(Cl)c2C2C=CCC12 (stereo not shown) [W] | 6.4% | 5.39% |
| CC(=O)NC(c1ccco1)c1cc([N+](=O)[O-])c2cccnc2c1O (stereo not shown) [Y] | 6.77% | 6.04% |
| Cn1c(S)nnc1-c1ccccc1O [Z] | 6.88% | 12.7% |
